Reference: paper PMC5562545 (Journal of molecular biology, 2017)

Target: WT PA channel (Bacillus anthracis, UniProt P13423)
Assay type: biochemical

Chain of WT PA channel (P13423 197-764 limits assumed): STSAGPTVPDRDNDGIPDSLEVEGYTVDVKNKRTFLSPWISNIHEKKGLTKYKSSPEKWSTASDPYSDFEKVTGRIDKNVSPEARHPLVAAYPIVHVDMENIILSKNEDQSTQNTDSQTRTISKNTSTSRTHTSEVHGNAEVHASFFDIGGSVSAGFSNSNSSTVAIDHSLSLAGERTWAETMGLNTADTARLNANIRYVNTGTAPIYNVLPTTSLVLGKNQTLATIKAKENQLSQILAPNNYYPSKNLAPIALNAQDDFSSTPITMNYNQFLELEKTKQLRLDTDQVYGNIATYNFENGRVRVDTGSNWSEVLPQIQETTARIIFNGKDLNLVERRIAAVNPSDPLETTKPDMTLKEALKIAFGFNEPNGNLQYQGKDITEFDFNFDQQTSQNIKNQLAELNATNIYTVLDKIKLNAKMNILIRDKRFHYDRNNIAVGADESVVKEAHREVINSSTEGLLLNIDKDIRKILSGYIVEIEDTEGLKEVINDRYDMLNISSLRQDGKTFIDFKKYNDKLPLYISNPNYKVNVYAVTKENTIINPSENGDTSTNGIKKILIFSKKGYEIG

| Substance | dissociation to the cis side slower than L-Trp (pH 5.6) | relative rate of dissociation to the cis side (in words) (pH 5.6) | translocation slower than L-Trp (pH 5.6) | duration of the I2/B oscillation among guest–host peptides | oscillation between conductance states during translocation | translocation (in words) (pH 5.6) | translocation faster than D,L-Trp and D-Trp peptides (pH 5.6) | translocation faster than the HBS stapled peptide (pH 5.6) |
| --- | --- | --- | --- | --- | --- | --- | --- | --- |
| D-Trp | ~ 20 fold | dissociated the slowest | ~ 10 fold |  |  |  |  |  |
| L-Trp |  | dissociated the fastest |  | longest durations | exhibited an oscillation between the I2 and B | translocated the fastest | 10 fold | ~ 100 fold |
